In US8552220B2, “Therapeutic agent for Alzheimer's disease” (Tokyo Institute of Technology, priority 2008, dated 2013) one finds melting point data, which are given here for 37 molecules.

By melting point is commonly meant the temperature of the solid-liquid transition. Turning to `O=C(/C=C/c1ccc(O)cc1)CC(=O)/C=C/c1ccc(Br)cc1F` [CU471, (1E,6E)-1-(4-bromo-2-fluorophenyl)-7-(4-hydroxyphenyl)hepta-1,6-diene-3,5-dione], the melting point is 223 to 232 °C.

Molecule `COc1cc(Br)c(/C=C/C(=O)CC(=O)/C=C/c2ccc(O)cc2)cc1O` [CU543, (1E,6E)-1-(2-bromo-5-hydroxy-4-methoxyphenyl)-7-(4-hydroxyphenyl)hepta-1,6-diene-3,5-dione] displayed a melting point of 224 to 229 °C.

In turn, `CCOC(=O)c1cn(-c2ccccc2/C=C/C(=O)CC(=O)/C=C/c2ccc(O)cc2)nn1` [CU625, (1E,6E)-1-[2-(4-ethoxycarbonyl-1H-1,2,3-triazol-1-yl)phenyl]-7-(4-hydroxyphenyl)hepta-1,6-diene-3,5-dione] displayed a melting point of 231 to 237 °C.

Consider `O=C(/C=C/c1cc(O)ccc1[N+](=O)[O-])CC(=O)/C=C/c1cc(O)ccc1[N+](=O)[O-]`, for which the melting point was in the range of 253 to 262 °C.

Molecule `COc1ccc(/C=C/C(=O)CC(=O)/C=C/c2ccc(O)cc2Cl)cc1O` [CU130, (1E,6E)-1-(2-chloro-4-hydroxyphenyl)-7-(3-hydroxy-4-methoxyphenyl)hepta-1,6-diene-3,5-dione] yielded a melting point of 120 to 130 °C.

Molecule `CN(C)c1ccc(/C=C/C(=O)CC(=O)CCc2ccc(O)cc2)c(C(F)(F)F)c1` [CU556, (E)-1-(4-dimethylamino-2-trifluoromethylphenyl)-7-(4-hydroxyphenyl)hept-1-ene-3,5-dione] returned a melting point of 110 to 114 °C.

`O=C(/C=C/c1ccc2cc[nH]c2c1)CC(=O)/C=C/c1cc(O)ccc1[N+](=O)[O-]` [CU596, (1E,6E)-1-(5-hydroxy-2-nitrophenyl)-7-(1H-indol-6-yl)hepta-1,6-diene-3,5-dione] came in with a melting point of 204 to 207 °C.

In turn, `CN(C)c1ccc(/C=C/C(=O)CC(=O)/C=C/c2ccc(O)cc2)c(C(F)(F)F)c1` [CU555, (1E,6E)-1-(4-dimethylamino-2-trifluoromethylphenyl)-7-(4-hydroxyphenyl)hepta-1,6-diene-3,5-dione] showed a melting point of 195 to 199 °C.

`O=C(/C=C/c1ccc(O)cc1)CC(=O)/C=C/c1cc(Cl)ccc1[N+](=O)[O-]` [CU465, (1E,6E)-1-(5-chloro-2-nitrophenyl)-7-(4-hydroxyphenyl)hepta-1,6-diene-3,5-dione] showed a melting point of 241 to 250 °C.

`COc1cc(O)ccc1/C=C/C(=O)CC(=O)/C=C/c1cc(OCc2ccccc2)ccc1-c1ccccc1` [CU559, (1E,6E)-1-(4-benzyloxybiphenyl-2-yl)-7-(4-hydroxy-2-methoxyphenyl)hepta-1,6-diene-3,5-dione]: the melting point lay within 175 to 180 °C.

`Cc1ccccc1-c1ccc(O)cc1/C=C/C(=O)CC(=O)/C=C/c1ccc(O)cc1` [CU642, (1E,6E)-1-(4-hydroxy-2′-methylbiphenyl-2-yl)-7-(4-hydroxyphenyl)hepta-1,6-diene-3,5-dione] yielded a melting point of 173 to 177 °C.

As to `CN(C)S(=O)(=O)c1ccccc1/C=C/C(=O)CC(=O)/C=C/c1ccc(O)cc1` [CU480, (1E,6E)-1-[2-(dimethylaminosulfonyl)phenyl]-7-(4-hydroxyphenyl)hepta-1,6-diene-3,5-dione], the melting point fell in the range of 86 to 90 °C.

`O=C(/C=C/c1cc(O)ccc1Br)CC(=O)/C=C/c1ccccc1C(F)(F)F` [CU615, (1E,6E)-1-(2-bromo-5-hydroxyphenyl)-7-(2-trifluoromethylphenyl)hepta-1,6-diene-3,5-dione] returned a melting point of 66 to 70 °C.

On to `O=C(/C=C/c1ccc(O)cc1)CC(=O)/C=C/c1ccc(N2CCN(c3ccccc3)CC2)cc1Br` [CU1095, (1E,6E)-1-[2-bromo-4-(4-phenylpiperazin-1-yl)phenyl]-7-(4-hydroxyphenyl)hepta-1,6-diene-3,5-dione], for which the melting point is 195 to 204 °C.

For `CCN(CC)c1ccc(/C=C/C(=O)CC(=O)/C=C/c2ccc(N(CC)CC)cc2OC(=O)c2ccccc2)c(OC(=O)c2ccccc2)c1` [CU427, (1E,6E)-1,7-bis(2-benzoyloxy-4-diethylaminophenyl)hepta-1,6-diene-3,5-dione], the melting point was in the range of 192 to 196 °C.

`O=C(/C=C/c1ccc(O)cc1)CC(=O)/C=C/c1ccc(O)cc1Cl` [CU127, (1E,6E)-1-(2-chloro-4-hydroxyphenyl)-7-(4-hydroxyphenyl)hepta-1,6-diene-3,5-dione] gave a melting point of 131 to 138 °C.

In the case of `O=C(/C=C/c1ccc(O)cc1)CC(=O)/C=C/c1ccc(N2CCCCC2)cc1Br` [CU1090, (1E,6E)-1-[2-bromo-4-(piperidin-1-yl)phenyl]-7-(4-hydroxyphenyl)hepta-1,6-diene-3,5-dione], the melting point lay within 238 to 248 °C.

As to `O=C(/C=C/c1ccc(O)cc1)CC(=O)/C=C/c1ccc(N2CCC(Cc3ccccc3)CC2)cc1Br` [CU1091, (1E,6E)-1-[4-(4-benzylpiperidin-1-yl)-2-bromophenyl]-7-(4-hydroxyphenyl)hepta-1,6-diene-3,5-dione], the melting point fell in the range of 155 to 161 °C.

Take `O=C(/C=C/c1ccc2cc[nH]c2c1)CC(=O)/C=C/c1cc(O)ccc1-c1ccccc1` [CU604, (1E,6E)-1-(4-hydroxybiphenyl-2-yl)-7-(1H-indol-6-yl)hepta-1,6-diene-3,5-dione]: the melting point was in the range of 185 to 191 °C.

For `O=C(/C=C/c1ccc(O)cc1)CC(=O)/C=C/c1cc(Cl)ccc1-c1ccccc1` [CU641, (1E,6E)-1-(4-chlorobiphenyl-2-yl)-7-(4-hydroxyphenyl)hepta-1,6-diene-3,5-dione], the melting point lay within 193 to 196 °C.

Molecule `CN(C)C(=O)c1ccccc1/C=C/C(=O)CC(=O)/C=C/c1ccc(O)cc1` [CU479, (1E,6E)-1-[2-(dimethylaminocarbonyl)phenyl]-7-(4-hydroxyphenyl)hepta-1,6-diene-3,5-dione] gave a melting point of 210 to 218 °C.

`CS(=O)(=O)Oc1ccccc1/C=C/C(=O)CC(=O)/C=C/c1ccc(O)cc1` [CU483, (1E,6E)-1-(4-hydroxyphenyl)-7-[2-(methylsulfonyloxy)phenyl]hepta-1,6-diene-3,5-dione] had a melting point of 163 to 167 °C.

Molecule `COc1cc(/C=C/C(=O)CC(=O)/C=C/c2ccc(O)cc2)c(Br)c(Br)c1O` [CU652, (1E,6E)-1-(2,3-dibromo-4-hydroxy-5-methoxyphenyl)-7-(4-hydroxyphenyl)hepta-1,6-diene-3,5-dione] returned a melting point of 215 to 218 °C.

On to `O=C(/C=C/c1ccc(O)cc1)CC(=O)/C=C/c1cc(OCc2c(F)cccc2Cl)ccc1[N+](=O)[O-]` [CU492, (1E,6E)-1-[5-(2-chloro-6-fluorobenzyloxy)-2-nitrophenyl]-7-(4-hydroxyphenyl)hepta-1,6-diene-3,5-dione], for which the melting point was 180 to 183 °C.

`COc1cc(/C=C/C(=O)CC(=O)/C=C/c2ccc(O)cc2Cl)ccc1O` [CU129, (1E,6E)-1-(2-chloro-4-hydroxyphenyl)-7-(4-hydroxy-3-methoxyphenyl)hepta-1,6-diene-3,5-dione] showed a melting point of 185 to 192 °C.

In turn, `O=C(/C=C/c1cc(O)ccc1-c1ccccc1)CC(=O)CCc1ccc(O)cc1` [CU541, (E)-1-(4-hydroxybiphenyl-2-yl)-7-(4-hydroxyphenyl)hept-1-ene-3,5-dione] gave a melting point of 148 to 158 °C.

In the case of `O=C(/C=C/c1ccc(O)cc1)CC(=O)/C=C/c1ccc(O)cc1Br` [CU671, (1E,6E)-1-(2-bromo-4-hydroxyphenyl)-7-(4-hydroxyphenyl)hepta-1,6-diene-3,5-dione], the melting point was 196 to 205 °C.

Turning to `O=C(/C=C/c1cc(O)ccc1[N+](=O)[O-])CC(=O)CCc1ccc(O)cc1` [CU530, (E)-1-(5-hydroxy-2-nitrophenyl)-7-(4-hydroxyphenyl)hept-1-ene-3,5-dione], the melting point lay in the range of 62 to 70 °C.

Molecule `COc1cc(O)ccc1/C=C/C(=O)CC(=O)/C=C/c1cc(O)ccc1[N+](=O)[O-]` [CU585, (1E,6E)-1-(4-hydroxy-2-methoxyphenyl)-7-(5-hydroxy-2-nitrophenyl)hepta-1,6-diene-3,5-dione] had a melting point of 119 to 123 °C.

`COc1cc(/C=C/C(=O)CC(=O)/C=C/c2cc(O)ccc2[N+](=O)[O-])ccc1O` [CU132, (1E,6E)-1-(4-hydroxy-3-methoxyphenyl)-7-(5-hydroxy-2-nitrophenyl)hepta-1,6-diene-3,5-dione] gave a melting point of 147 to 152 °C.

On to `COc1cc(O)ccc1/C=C/C(=O)CC(=O)/C=C/c1cc(O)ccc1Br` [CU561, (1E,6E)-1-(2-bromo-5-hydroxyphenyl)-7-(4-hydroxy-2-methoxyphenyl)hepta-1,6-diene-3,5-dione], for which the melting point lay within 92 to 98 °C.

Take `CN(C)c1ccc(/C=C/C(=O)CC(=O)/C=C/c2ccc(N(C)C)cc2Cl)c(Cl)c1` [CU412, (1E,6E)-1,7-bis(2-chloro-4-dimethylaminophenyl)hepta-1,6-diene-3,5-dione]: the melting point is 238 to 241 °C.

Consider `CN(C)c1ccc(/C=C/C(=O)CC(=O)/C=C/c2ccc3cc[nH]c3c2)c([N+](=O)[O-])c1` [CU592, (1E,6E)-1-(4-dimethylamino-2-nitrophenyl)-7-(1H-indol-6-yl)hepta-1,6-diene-3,5-dione], for which the melting point lay within 196 to 201 °C.

The molecule `O=C(/C=C/c1ccc(O)cc1)CC(=O)/C=C/c1ccccc1Cl` [CU624, (1E,6E)-1-(2-chlorophenyl)-7-(4-hydroxyphenyl)hepta-1,6-diene-3,5-dione] gave a melting point of 158 to 161 °C.

Molecule `CN(C)c1ccc(/C=C/C(=O)CC(=O)/C=C/c2ccc(O)cc2)c([N+](=O)[O-])c1` [CU194, (1E,6E)-1-(4-dimethylamino-2-nitrophenyl)-7-(4-hydroxyphenyl)hepta-1,6-diene-3,5-dione] showed a melting point of 217 to 222 °C.

As to `CN(C)c1ccc(/C=C/C(=O)CC(=O)/C=C/c2cc(O)ccc2Br)c(Cl)c1` [CU609, (1E,6E)-1-(2-bromo-5-hydroxyphenyl)-7-(2-chloro-4-dimethylaminophenyl)hepta-1,6-diene-3,5-dione], the melting point fell in the range of 209 to 214 °C.

`CCOc1ccccc1-c1ccc(O)cc1/C=C/C(=O)CC(=O)/C=C/c1ccc(O)cc1` [CU643, (1E,6E)-1-(2′-ethoxy-4-hydroxybiphenyl-2-yl)-7-(4-hydroxyphenyl)hepta-1,6-diene-3,5-dione] returned a melting point of 111 to 115 °C.
